Measurements taken from US20120157401A1, “METHODS FOR TREATING NEUROFIBROMATOSIS” (PTC Therapeutics, Inc., priority 2009, published 2012).
Read-outs that look alike come from different tables or passages of the source.

Test system: hypoxia-inducible endogenous VEGF expression
Experiment: Hypoxia-inducible endogenous VEGF expression ELISA in HeLa cells, dose-response EC50 (Table 3)
Type: cell-based, human
Settings: Homo sapiens
Summary of the method: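 HeLa cells kept 24-48 h under hypoxia (1% O2, 5% CO2, nitrogen balance) with or without compound, e.g. seven concentrations; secreted VEGF in conditioned medium quantified by ELISA against a standard curve. Parallel Cell Titer Glo viability under identical conditions excludes cytotoxicity.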

[1] = HeLa cells, hypoxic conditions (1% O2), 24-48 hours, VEGF in conditioned media, read-out: ELISA EC50
[2] = HeLa cells, hypoxic conditions (1% O2), VEGF ELISA of conditioned media, read-out: ELISA EC50

Compound	EC50 [1] [µM]	further results
Cc1ccc(OC(=O)N2CCc3c([nH]c4ccc(Cl)cc34)C2c2ccc(OCC[C@H](O)CO)cc2)cc1 (stereo partly shown) [Compound 1180]	< 0.008	–
COc1ccc(OC(=O)N2CCc3c([nH]c4ccc(Cl)cc34)C2c2ccc(OCC[C@H](O)CO)cc2)cc1 (stereo partly shown) [Compound 1181]	< 0.008	–
Cc1ccc(OC(=O)N2CCc3c([nH]c4ccc(Cl)cc34)[C@@H]2c2ccc(OCCCn3cncn3)cc2)cc1 [Compound 1182]	< 0.008	–
O=C(Oc1ccc(Cl)cc1)N1CCc2c([nH]c3ccc(Cl)cc23)C1c1ccc(OCCCNCCO)cc1 (stereo not shown) [Compound 1183]	–	EC50 (HeLa, read-out: ELISA EC50 μM): < 0.008 µM
O=C(Oc1ccc(Cl)cc1)N1CCc2c([nH]c3ccc(Cl)cc23)C1c1ccc(OCCCN(CCO)CCO)cc1 (stereo not shown) [Compound 1184]	–	EC50 (HeLa, read-out: ELISA EC50 μM): < 0.008 µM
COc1cc(C2c3[nH]c4ccc(Cl)cc4c3CCN2C(=O)Oc2ccc(C)cc2)ccc1OCCCn1nccn1 (stereo not shown) [Compound 1194]	< 0.008	–
COc1ccc(C2c3[nH]c4ccc(Cl)cc4c3CCN2C(=O)Oc2ccc(F)cc2)cc1F (stereo not shown) [Compound 1195]	0.008 to 0.04	–
COc1ccc(C2c3[nH]c4ccc(Cl)cc4c3CCN2C(=O)Oc2ccc(C)cc2)cc1F (stereo not shown) [Compound 1196]	0.008 to 0.04	–
COc1ccc(OC(=O)N2CCc3c([nH]c4ccc(Cl)cc34)C2c2ccc(OC)c(F)c2)cc1 (stereo not shown) [Compound 1197]	0.008 to 0.04	–
COc1ccc(C2c3[nH]c4ccc(Cl)cc4c3CCN2C(=O)Oc2ccc(Cl)cc2)cc1F (stereo not shown) [Compound 1199]	0.008 to 0.04	–
CC1(C)OC[C@H](CCOc2ccc([C@H]3c4[nH]c5ccc(Cl)cc5c4CCN3C(=O)Oc3ccc(Cl)cc3)cc2)O1 [Compound 1203]	< 0.008	–
CC1(C)OCC(COc2ccc([C@H]3c4[nH]c5ccc(Cl)cc5c4CCN3C(=O)Oc3ccc(Cl)cc3)cc2)CO1 [Compound 1207]	< 0.008	–
O=C(Oc1ccc(Cl)cc1)N1CCc2c([nH]c3ccc(Cl)cc23)[C@@H]1c1ccc(OCC(CO)CO)cc1 [Compound 1209]	< 0.008	–
NC(=O)COc1ccc(C2c3[nH]c4ccc(Cl)cc4c3CCN2C(=O)Oc2ccccc2Cl)cc1 (stereo not shown) [Compound 1213]	0.04 to 0.2	–
COc1ccc(OC(=O)N2CCc3c([nH]c4ccc(Cl)cc34)C2c2ccc(OCC(N)=O)cc2)cc1 (stereo not shown) [Compound 1216]	0.008 to 0.04	–
O=C(Oc1ccc(Cl)cc1)N1CCc2c([nH]c3ccc(Cl)cc23)[C@@H]1c1ccc(OC[C@H](O)CO)cc1 [Compound 1223]	< 0.008	–
O=C(Oc1ccc(Cl)cc1)N1CCc2c([nH]c3ccc(Cl)cc23)[C@@H]1c1ccc(OC[C@@H](O)CO)cc1 [Compound 1224]	< 0.008	–
COCC(=O)NCC(O)COc1ccc(C2c3[nH]c4ccc(Cl)cc4c3CCN2C(=O)Oc2ccc(Cl)cc2)cc1 (stereo not shown) [Compound 1225]	0.008 to 0.04	–
CC1(C)OC[C@H](COc2ccc([C@H]3c4[nH]c5ccc(Cl)cc5c4CCN3C(=O)Oc3ccc(Cl)cc3)cc2)O1 [Compound 1227]	< 0.008	–
CCOC(COc1ccc(C2c3[nH]c4ccc(Cl)cc4c3CCN2C(=O)Oc2ccc(Cl)cc2)cc1)OCC (stereo not shown) [Compound 1228]	< 0.008	–
CC1(COc2ccc([C@H]3c4[nH]c5ccc(Cl)cc5c4CCN3C(=O)Oc3ccc(Cl)cc3)cc2)COC(C)(C)OC1 [Compound 1229]	< 0.008	–
CC(CO)(CO)COc1ccc([C@H]2c3[nH]c4ccc(Cl)cc4c3CCN2C(=O)Oc2ccc(Cl)cc2)cc1 [Compound 1230]	< 0.008	–

Compound	EC50 [1] [µM]	further results
O=C(Oc1ccc(Cl)cc1)N1CCc2c([nH]c3ccc(Cl)cc23)C1c1ccc(OC(CO)CO)cc1 (stereo not shown) [Compound 1231]	0.008 to 0.04	–
CCCN(CCC)CCCOc1ccc([C@H]2c3[nH]c4ccc(Cl)cc4c3CCN2C(=O)Oc2ccc(Cl)cc2)cc1 [Compound 1234]	–	EC50 (HeLa, read-out: ELISA EC50 μM): < 0.008 µM
O=C(Oc1ccc(Cl)cc1)N1CCc2c([nH]c3ccc(Cl)cc23)[C@@H]1c1ccc(OCCCNC2CCCC2)cc1 [Compound 1235]	–	EC50 (HeLa, read-out: ELISA EC50 μM): 0.008 to 0.04 µM
O=C(Oc1ccc(Cl)cc1)N1CCc2c([nH]c3ccc(Cl)cc23)[C@@H]1c1ccc(OCCCO)cc1 [Compound 1250]	< 0.008	–
O=C(Oc1ccc(Cl)cc1)N1CCc2c([nH]c3ccc(Cl)cc23)[C@@H]1c1ccc(OCCCNC(CO)(CO)CO)cc1 [Compound 1255]	–	EC50 (HeLa, read-out: ELISA EC50 μM): 0.04 to 0.2 µM
O=C(Oc1ccc(Cl)cc1)N1CCc2c([nH]c3ccc(Cl)cc23)[C@@H]1c1ccc(OCCCNCCO)cc1 [Compound 1257]	–	EC50 (HeLa, read-out: ELISA EC50 μM): 0.008 to 0.04 µM
O=C(Oc1ccc(Cl)cc1)N1CCc2c([nH]c3ccc(Cl)cc23)[C@@H]1c1ccc(OCCCN(CCO)CCO)cc1 [Compound 1258]	–	EC50 (HeLa, read-out: ELISA EC50 μM): < 0.008 µM
O=C(Oc1ccc(Cl)cc1)N1CCc2c([nH]c3ccc(Cl)cc23)[C@@H]1c1ccc(OC(CO)CO)cc1 [Compound 1259]	0.008 to 0.04	–
CC1(C)OC[C@@H](COc2ccc([C@H]3c4[nH]c5ccc(Cl)cc5c4CCN3C(=O)Oc3ccc(Cl)cc3)cc2)O1 [Compound 1260]	< 0.008	–
O=C(Oc1ccc(Cl)cc1)N1CCc2c([nH]c3ccc(Cl)cc23)[C@@H]1c1ccc(OCC2(CO)COCOC2)cc1 [Compound 1263]	< 0.008	–
COc1ccc(C2c3[nH]c4ccc(Cl)cc4c3CCN2C(=O)Oc2ccc(F)cc2)c(F)c1 (stereo not shown) [Compound 1265]	0.008 to 0.04	–
COc1ccc(C2c3[nH]c4ccc(Cl)cc4c3CCN2C(=O)Oc2ccc(C)cc2)c(F)c1 (stereo not shown) [Compound 1266]	< 0.008	–
COc1ccc(OC(=O)N2CCc3c([nH]c4ccc(Cl)cc34)C2c2ccc(OC)cc2F)cc1 (stereo not shown) [Compound 1267]	0.008 to 0.04	–
COc1ccc(C2c3[nH]c4ccc(Cl)cc4c3CCN2C(=O)Oc2ccc(Cl)cc2)c(F)c1 (stereo not shown) [Compound 1269]	< 0.008	–
CC(=O)NCC(O)CCOc1ccc([C@H]2c3[nH]c4ccc(Cl)cc4c3CCN2C(=O)Oc2ccc(Cl)cc2)cc1 (stereo partly shown) [Compound 1276]	< 0.008	–
CC(=O)NCC(CCOc1ccc([C@H]2c3[nH]c4ccc(Cl)cc4c3CCN2C(=O)Oc2ccc(Cl)cc2)cc1)OC(C)=O (stereo partly shown) [Compound 1277]	< 0.008	–
COCC(=O)NCC(O)CCOc1ccc([C@H]2c3[nH]c4ccc(Cl)cc4c3CCN2C(=O)Oc2ccc(Cl)cc2)cc1 (stereo partly shown) [Compound 1278]	< 0.008	–
O=C(Oc1ccc(Cl)cc1)N1CCc2c([nH]c3ccc(Cl)cc23)[C@@H]1c1ccc(OCCC(O)CN2CCOCC2)cc1 (stereo partly shown) [Compound 1279]	–	EC50 (HeLa, read-out: ELISA EC50 μM): < 0.008 µM
O=C(Oc1ccc(Cl)cc1)N1CCc2c([nH]c3ccc(Cl)cc23)[C@@H]1c1ccc(OCCC(O)CN(CCO)CCO)cc1 (stereo partly shown) [Compound 1280]	–	EC50 (HeLa, read-out: ELISA EC50 μM): 0.008 to 0.04 µM
O=C(Oc1ccc(Cl)cc1)N1CCc2c([nH]c3ccc(Cl)cc23)[C@@H]1c1ccc(OCCC(O)Cn2ccnn2)cc1 (stereo partly shown) [Compound 1281]	< 0.008	–
O=C(Oc1ccc(Cl)cc1)N1CCc2c([nH]c3ccc(Cl)cc23)[C@@H]1c1ccc(OCCC(O)Cn2cncn2)cc1 (stereo partly shown) [Compound 1282]	< 0.008	–
Cc1ccc(OC(=O)N2CCc3c([nH]c4ccc(Cl)cc34)[C@@H]2c2ccc(OCCC(O)CN(CCO)CCO)cc2)cc1 (stereo partly shown) [Compound 1288]	–	EC50 (HeLa, read-out: ELISA EC50 μM): 0.008 to 0.04 µM

Compound	EC50 [1] [µM]	further results
Cc1ccc(OC(=O)N2CCc3c([nH]c4ccc(Cl)cc34)[C@@H]2c2ccc(OCCC(O)Cn3ccnn3)cc2)cc1 (stereo partly shown) [Compound 1289]	< 0.008	–
Cc1ccc(OC(=O)N2CCc3c([nH]c4ccc(Cl)cc34)[C@@H]2c2ccc(OCCC(O)Cn3nccn3)cc2)cc1 (stereo partly shown) [Compound 1290]	< 0.008	–
Cc1ccc(OC(=O)N2CCc3c([nH]c4ccc(Cl)cc34)[C@@H]2c2ccc(OCCC(O)Cn3cncn3)cc2)cc1 (stereo partly shown) [Compound 1291]	0.008 to 0.04	–
Cc1ccc(OC(=O)N2CCc3c([nH]c4ccc(Cl)cc34)[C@@H]2c2ccc(OCC[C@H](O)CO)cc2)cc1 [Compound 1292]	< 0.008	–
O=C(Oc1ccc(F)cc1)N1CCc2c([nH]c3ccc(Cl)cc23)[C@@H]1c1ccc(OCC[C@H](O)CO)cc1 [Compound 1293]	< 0.008	–
Cc1ccc(OC(=O)N2CCc3c([nH]c4ccc(Cl)cc34)[C@@H]2c2ccc(OCC(C)(CO)CO)cc2)cc1 [Compound 1297]	0.008 to 0.04	–
O=C(Oc1ccccc1)N1CCc2c([nH]c3ccc(Cl)cc23)[C@@H]1c1ccc(OCC[C@H](O)CO)cc1 [Compound 1299]	< 0.008	–
COc1ccc(OC(=O)N2CCc3c([nH]c4ccc(Cl)cc34)[C@@H]2c2ccc(OCC[C@H](O)CO)cc2)cc1 [Compound 1300]	< 0.008	–
COCC(=O)NCC(O)CCOc1ccc([C@H]2c3[nH]c4ccc(Cl)cc4c3CCN2C(=O)Oc2ccc(C)cc2)cc1 (stereo partly shown) [Compound 1301]	0.008 to 0.04	–
Cc1ccc(OC(=O)N2CCc3c([nH]c4ccc(Cl)cc34)[C@@H]2c2ccc(OCCC(O)CN3CCOCC3)cc2)cc1 (stereo partly shown) [Compound 1302]	–	EC50 (HeLa, read-out: ELISA EC50 μM): 0.04 to 0.2 µM
CCC(CO)(CO)COc1ccc([C@H]2c3[nH]c4ccc(Cl)cc4c3CCN2C(=O)Oc2ccc(F)cc2)cc1 [Compound 1328]	–	EC50 [2]: < 0.008 µM
CCC(CO)(CO)COc1ccc([C@H]2c3[nH]c4ccc(Cl)cc4c3CCN2C(=O)Oc2ccc(Cl)cc2)cc1 [Compound 1329]	–	EC50 [2]: < 0.008 µM
O=C(Oc1ccc(Cl)cc1)N1CCc2c([nH]c3ccc(Cl)cc23)[C@H]1c1ccc(OCC[C@H](O)CO)cc1 [Compound 1330]	–	EC50 [2]: > 1 µM
CC1(C)OC[C@H](CCOc2ccc([C@@H]3c4[nH]c5ccc(Cl)cc5c4CCN3C(=O)Oc3ccc(Cl)cc3)cc2)O1 [Compound 1331]	–	EC50 [2]: > 1 µM
CC(CO)(CO)COc1ccc([C@H]2c3[nH]c4ccc(Cl)cc4c3CCN2C(=O)Oc2ccccc2)cc1 [Compound 1336]	–	EC50 [2]: 0.008 to 0.04 µM
COc1ccc(OC(=O)N2CCc3c([nH]c4ccc(Cl)cc34)[C@@H]2c2ccc(OCC(C)(CO)CO)cc2)cc1 [Compound 1337]	–	EC50 [2]: 0.008 to 0.04 µM
O=C(Oc1ccc(F)cc1)N1CCc2c([nH]c3ccc(Br)cc23)C1c1ccc(OCC(O)CO)cc1 (stereo not shown) [Compound 1343]	–	EC50 [2]: < 0.008 µM
O=C(Oc1ccc(Cl)cc1)N1CCc2c([nH]c3ccc(Br)cc23)C1c1ccc(OCC(O)CO)cc1 (stereo not shown) [Compound 1344]	–	EC50 [2]: < 0.008 µM
O=C(Oc1ccc(F)cc1)N1CCc2c([nH]c3ccc(Br)cc23)C1c1ccc(OCC[C@H](O)CO)cc1 (stereo partly shown) [Compound 1348]	–	EC50 [2]: < 0.008 µM
O=C(Oc1ccc(Cl)cc1)N1CCc2c([nH]c3ccc(Br)cc23)C1c1ccc(OCC[C@H](O)CO)cc1 (stereo partly shown) [Compound 1349]	–	EC50 [2]: < 0.008 µM
